Results on three compounds are retold here after patent US20030170643A1, “Regulation of apoB treatment and drug screening for cardiovascular and metabolic disorders or syndromes” (priority 1999, published 2003).

Holding throughout (format): cell-based
One experiment has as its system McArdle RH-7777 cells. In words: Secretion of labeled apoB and apoE by McArdle RH-7777 cells after MTP inhibition. The following applies: rat hepatoma cells, 4 hr, MTP inhibitor. On the procedure:
FIG. 7 illustrates that inhibition of MTP reduces the secretion of newly synthesized apoB100 without affecting apoE. Rat McA hepatoma cells were incubated at 37 °C for 4 hr with [ ^35S]methionine in the absence (Control) or presence (MTPI) of an inhibitor of MTP activity. Equal aliquots of the conditioned media samples from duplicate wells were subjected to separate immunoprecipitations with anti-apoB or anti-apoE antiserum. For each well, the resulting pellets from the two immunoprecipitations were combined and analyzed by SDS-PAGE and fluorography.
To determine the differential effects of MTP inhibition on the secretion of labeled apoB and apoE, in some experiments, McArdle RH-7777 cells were pre-treated for 30 min with MTP inhibitor BMS-200150 ([…] dissolved in DMSO; (Jamil, H., Gordon, D. A., Eustice, D. C., Brooks, C. M., Dickson, J. K., Jr., Chen, Y., Ricci, B., Chu, C.-H., Harrity, T. W., Ciosek, C. P., Jr., Biller, S. A., Gregg, R. E., and Wetterau, J. R. (1996) Proc Natl Acad Sci USA 93, 11991-11995)) or DMSO alone (final concentration 0.5%) before adding radiolabel. The cells were further incubated for 4 hr and the conditioned media contents of apoB and apoE determined by immunoprecipitation and SDS-PAGE analysis as described above.

The subject of experiment [1] is rat primary hepatocytes. The experiment in a line: Secretion of newly synthesized ([35S]methionine-labeled) VLDL-apoproteins by rat primary hepatocytes incubated with fatty acid/BSA complexes. The settings on record: fatty acid/BSA complexes (0.8 mM FA), VLDL fraction. As for the experimental part:
Cells were plated at a density of 2×10^6 cells/ml on 60-mm culture dishes (previously coated with poly-D-lysine) in modified M199 medium (M199, 1% fetal bovine serum [FBS], 1 mM nicotinamide, 0.1 nM insulin, 3 mg/ml choline, 1.1% L-glutamine, 1% BSA). After a four-hour attachment period, the medium was changed (modified M199 identical to the above except BSA was omitted and the concentration of FBS was raised to 10%). The next morning, cells were washed in serum-free medium three times, the experimental media added, and the cells incubated at 37° C. for 4-6 hours. The experimental medium consisted of serum-free RPMI containing the appropriate isotopes (see below) and fatty acids (FA) present at a final concentration of 0.8 mM complexed to BSA (FA:BSA molar ratio=5:1). The fatty acids used were oleic (OA), EPA, and DHA. Control medium was identical, except that BSA (0.16 mM) without fatty acids was present. For metabolic labeling of proteins, [^35S]methionine (70 uCi/ml) was included in the experimental media.
Following the 4-6 hour incubation period, the cell monolayer was washed, then solubilized in 0.1 M NaOH, and the cell protein determined by the Lowry method (Lowry, O. H., Rosebrough, N. J., Farr, A. L., and Randall, R. J. (1951) J Biol Chem 193, 265-75). Each 60 mm dish contained approximately 1-1.5 mg of cell protein. The secreted apoproteins were isolated from the medium either by ultracentrifugation or immunoprecipitation. To isolate the d<1.006 (VLDL) and 1.006<d<1.063 (IDL and LDL) g/ml density classes by centrifugation, sequential 20 hour runs at 48,000 rpm in a 50 Ti Beckman rotor at 4° C. were performed. After the first run at d=1.006, the upper VLDL layer was harvested and the density of the infranatant adjusted to 1.066 g/ml with solid KBr. After being overlaid with a KBr solution of density 1.063, the adjusted infranatant was re-centrifuged as before to isolate the IDL and LDL fractions. In some experiments, the HDL fraction (1.063<d<1.21) was isolated by sequential density centrifugation. Lipoprotein fractions were then dialyzed against 0.9% NaCl containing 10 mM unlabeled methionine, 0.2 mM PMSF, and 2 mM EDTA. Dialyzed lipoproteins were delipidated using 9 volumes of 100% isopropanol. Apoproteins were then collected by centrifugation in a Sorval HB-4 rotor at 10,000 rpm and 4° C. for 20 min, and dissolved in buffer (0.01 M phosphate, pH 7,1 % SDS, 10% glycerol), in preparation for electrophoresis.
To immunoprecipitate apoB or apoE from unfractionated conditioned medium, monospecific rabbit antiserum to rat apoB or apoE was used. Briefly, an aliquot of the medium was mixed with an equal volume of diluted antiserum (1:100 in PBS and 1% BSA) and incubated overnight at 4° C. Staph A was added in the form of immunoprecipitin, and the resultant precipitate containing the immune complexes was washed extensively, the staph A cells removed, and the isolated apoprotein dissolved in gel sample buffer (0.0625M tris/Cl, pH 6.8, 20% glycerol, 2% SDS). Electrophoretic separation of apoVLDL, apoIDL/LDL, and immunoprecipitates was accomplished using 3.5% acrylamide-18% glycerol gels as described (Maguire, G. F., Lee, M., and Connelly, P. W. (1989) J Lipid Res 30, 757-61). An aliquot of each sample was taken for scintillation counting, so that total radioactivity applied to each lane could be determined. Also, protein size standards were included in each gel.
After electrophoresis, the gels were stained, fixed, soaked in Enhance fluor solution, and dried following protocols supplied by the manufacturer. Dried gels were then exposed to X-ray film at −70° C. and signals on the resulting fluorograms were typically quantified by densitometry or phosphorimaging. Using the total radioactivity applied to each lane of the gel and the relative signal intensity of each band in that lane, the radioactivity associated with each apoprotein species was calculated. […]

Experiment [2] has as its system rat primary hepatocytes. In words: Nascent VLDL re-uptake: VLDL-apoprotein secretion with or without heparin. On the procedure: FIG. 9 illustrates that DHA inhibits the secretion of newly synthesized VLDL-apoproteins even when re-uptake is blocked. Rat primary hepatocytes were treated as in FIG. 1, except that media in the indicated wells also was supplemented with heparin (10 mg/ml). Total labeled VLDL-apoproteins were determined as in FIG. 3. The results for the fatty acids are expressed relative to the corresponding result for BSA and are shown as mean ±SE (n=6).
To evaluate whether there were differential effects of fish oil fatty acids and OA on the re-uptake of newly synthesized VLDL, an experimental design identical to that described above was employed, except heparin (0.1 mg/ml or 10 mg/ml) was added to the treatment media to block LDL receptor-dependent and proteoglycan-mediated re-uptake (Williams, K. J., Fless, G. M., Petrie, K. A., Snyder, M. L., Brocia, R. W., and Swenson, T. L. (1992) J Biol Chem 267(19), 13284-92). Control experiments were performed showing that the flotation properties of VLDL were unchanged in the presence of heparin.
The concentration of heparin was 10 mg/ml, which blocks lipoprotein binding to both LDL receptors and HSPGs (Williams, K. J. et al. (1992) J Biol Chem 267(19), 13284-92, and citations therein). […] Thus, there is substantial re-uptake of nascent VLDL by primary hepatocytes in the presence of either fatty acid. […] Thus, re-uptake of newly exported apoB cannot explain the effect of Ω-3 fatty acids on lipoprotein secretion.

As to `O=C1c2ccccc2CN1C1CCN(CCC(c2ccccc2)c2ccccc2)CC1` [BMS compound #200150], in the experiment with McArdle RH-7777 cells, the “secretion of newly synthesized apoB100” value is given as “almost completely abolished” and the “secretion of newly synthesized apoE” value was “no significant effect”.
In the case of `CC/C=C\C/C=C\C/C=C\C/C=C\C/C=C\C/C=C\CCC(=O)O` [DHA, docosahexaenoic acid], in the experiment with rat primary hepatocytes [1], the “secretion of newly synthesized VLDL-ApoB48, percentage of secretion observed with BSA alone” value was 39 ± 3 percentage; the “secretion of newly synthesized VLDL-ApoB100, percentage of secretion observed with BSA alone” value came to 24 ± 3 percentage; the “secretion of newly synthesized VLDL-ApoE, percentage of secretion observed with BSA alone” value was determined as 53 ± 2 percentage. Besides, the “secretion of VLDL apoproteins, % of the OA control” value with rat primary hepatocytes [2] (independent of heparin treatment (10 mg/ml)) is recorded as “approximately 50%”.
As to heparin, the “apoB output in the presence of either fatty acid” value in the experiment with rat primary hepatocytes [2] (heparin 0.1 mg/ml) is “failed to increase”. For the same compound, the “net secretion of newly synthesized VLDL-apoproteins during treatment with either OA or DHA” value with rat primary hepatocytes [2] (heparin 10 mg/ml, P<0.01) was “approximately two-fold”.
